The target of data set [1] is T1, HIV reverse transcriptase (RT) (Human immunodeficiency virus type 1 group M subtype B, UniProt P03366).
T1 construct: The enzyme RT (from HIV cloned in E. coli); purchased HT-Biotechnology Ltd, Cambridge, UK; host or cells: E. coli
The data set can be described thus: Assay for HIV reverse transcriptase inhibition (scintillation proximity assay). It is filed as biochemical. The settings on record: RT from HIV cloned in E. coli, SPA, 60 minutes (37° C.); for IC50: read-out: Reverse Transcriptase Assay IC50 (converted). The protocol:
Assay of the Substances for HIV Reverse Transcriptase Inhibition
The activity of reverse transcriptase (RT) was determined with the aid of a scintillation proximity assay (SPA).
The reagent kit for the RT-SPA was obtained from Amersham/Buchler (Braunschweig).
The enzyme RT (from HIV cloned in E. coli) originated from HT-Biotechnology Ltd, Cambridge, UK.
The assay was carried out using the manufacturer's (Amersham) protocol manual, with the following modifications: bovine serum albumin was added to the assay buffer to give an end concentration of 0.5 mg/ml the assay was carried out in Eppendorf reaction vessels, using 100 μl volume per batch the manufacturer's RT concentrate (5000 U/ml) was diluted in Tris-HCl buffer 20 mM; pH 7.2; 30% of glycerol, to an activity of 15 U per ml the incubation time for the mixtures was 60 minutes (37° C.) after stopping the reaction and “developing” with the bead suspension, 130 μl of mixture were transferred to 4.5 ml of Tris-HCl buffer, 10 mM; pH 7.4; 0.15 M NaCl, and the tritium activity was measured by means of a [formula]-counter.
For a pre-assay for inhibitory activity, the substances were dissolved in DMSO (stock solution c=1 mg/ml), and tested as a 10^−1, 10^−2, 10^−3, etc., dilution in DMSO.
To determine IC50 values, the inhibitor stock solutions were diluted further in Tris-HCl buffer, 50 mM, pH 8, and tested in suitable concentrations.
The concentration corresponding to a 50% enzyme inhibition was determined from a plot of RT activity versus log Clnh.
On the technique in general: Scintillation proximity formats need no separation of bound from free tracer.

In data set [2] the test system is HIV. The data set can be described thus: Test of preparations against HIV in cell culture (T-cell culture assay). Type of data set: cell-based. The note with it: lowest concentration where no giant cells were observed, HIV-infected lymphocytes from donor blood, 3 days at 37° C.; for MIC: Human immunodeficiency virus 1, 72 h. The procedure:
Test of Preparations Against HIV in Cell Culture
Complete medium additionally contains 20% fetal calf serum and 40 IU/ml recombinant interleukin 2.
Lymphocytes which have been isolated from fresh donor blood by means of Ficoll gradient centrifugation are cultured for 36 hours in complete medium with an addition of 2 μg/ml phytohemagglutinin (Wellcome) at 37° C. under 5% of CO2. After 10% of DMSO has been added, the cells are frozen at a density of 5 [formula]10^6 and stored in liquid nitrogen. For the test, the cells are defrosted, washed in RPMI medium and cultured for 3-4 days in the complete medium.
The test preparations were dissolved in DMSO at a concentration of 16.7 mg/ml and diluted in complete medium to 1 mg/ml.
0.4 ml of medium was introduced into 24-multiwell dishes. 0.1 ml of the dissolved preparation was added to the upper row of the dish, and, by transferring 0.1 ml portions, a geometric dilution series was established. Controls without preparation always contained 0.4 ml of complete medium containing 0.5% of DMSO. Lymphocyte cultures with a cell density of 5 [formula]10^5 cells/ml were infected by adding 1/50 volume supernatant from HIV-infected lymphocyte cultures. The titer of these culture supernatants was determined by end-point titration as 1-5 [formula]10^6 infectious units/ml. After 30 minutes' incubation at 37° C., the infected lymphocytes were removed by centrifugation and taken up in an equal volume of medium. From this cell suspension, 0.6 ml aliquots were transferred into all wells of the test plate. The mixtures were incubated for 3 days at 37° C.
The infected cell cultures were examined under the microscope for the presence of giant cells, which indicate active virus multiplication in the culture. The lowest concentration of preparation where no giant cells were observed was determined as inhibitory concentration against HIV. As a control, the supernatants from the culture plates were tested for the presence of HIV antigen with the aid of an HIV antigen test following the manufacturer's instructions (Organon).

In brackets after ≈: the same amount, converted by molar mass. Counter-ions that a name gives are not always drawn. Where only a bound is given, the exact number is not on record here.

With `CC(C)CC1Nc2c(S(=O)(=O)Oc3ccccc3)ccc(N3CCN(C)CC3)c2NC1=O` (stereo not drawn) (as salt: hydrochloride) [XXXII, 8-(4-Methyl-1-piperazinyl)-3-(2-methylpropyl)-5-phenoxysulfonyl-3,4-dihydroquinoxalin-2(1H)-one], the melting point was ≥ 90 °C (dec.).

Turning to `CC1C(=O)Nc2ccc(Cl)cc2N1C1CC1` (racemic) [Example XVIII, (3RS)-6-Chloro-4-N-(cyclopropyl)-3-methyl-3,4-dihydroquinoxalin-2(1H)-one], the melting point is 167 °C. Same read-out and setting: the value for `CC(C)=CCN1c2ccccc2NC(=O)C1C` (racemic) [XXV, (3RS)-3-Methyl-4-N-(3-methyl-2-buten-1-yl)-3,4-dihydroquinoxalin-2(1H)-one] was 92 to 93 °C; that for `CC(=O)CCN1c2ccccc2NC(=O)C1C` (racemic) [XXXIV, (3RS)-3-Methyl-4-N-(3-oxo-1-butyl)-3,4-dihydroquinoxalin-2(1H)-one] was 108 to 109 °C. `CC1C(=O)Nc2ccc(Cl)cc2N1Cc1cccc(Cl)c1` (stereo not drawn) [Example 10-20]: the “Reverse Transcriptase Assay IC50” value in data set [1] is 0.1 to 1 µg/mL. In addition, in data set [2], the “T-cell culture assay MIC” value is below 0.8 µg/mL.

For the compound `CC1C(=O)Nc2ccc(Cl)cc2N1Cc1ccccc1Cl` (stereo not drawn) [Example 10-21], the “Reverse Transcriptase Assay IC50” value in data set [1] lay within 0.1 to 1 µg/mL. The “T-cell culture assay MIC” value in data set [2] was below 0.8 µg/mL. Taken in the same sequence, the figures for `CC1C(=O)Nc2ccc(Cl)cc2N1Cc1c(Cl)cccc1Cl` (stereo not drawn) [Example 10-27] were 0.1 to 1 µg/mL and 0.8 µg/mL. On the same counts, the results for `CC1C(=O)Nc2ccc(Cl)cc2N1Cc1cc(Cl)cc(Cl)c1` (stereo not drawn) [Example 10-28] are 0.1 to 1 µg/mL and below 0.8 µg/mL. Taken in the same sequence, the figures for `CC(C)OC(=O)N1c2cc(Cl)ccc2NC(=O)C1C` (stereo not drawn) [Example 11-11] were 0.1 to 1 µg/mL and 0.01 µg/mL.

As to `C[C@@H]1Nc2cc(Cl)ccc2NC1=O` [Example IB, (3S)-6-Chloro-3-methyl-3,4-dihydroquinoxalin-2(1H)-one], the melting point was in the range of 122 to 123 °C. Still for that read-out and setting: the value for `C[C@H]1Nc2cc(Cl)ccc2NC1=O` [Example IC, (3R)-6-Chloro-3-methyl-3,4-dihydroquinoxalin-2(1H)-one] was 123 to 124 °C; that for `O=C1Nc2cc(Cl)ccc2N[C@H]1Cc1ccccc1` [Example II, (3S)-3-Benzyl-7-chloro-3,4-dihydroquinoxalin-2(1H)-one] was 185 °C. In turn, `C[C@H]1C(=O)Nc2c(cc(Cl)cc2[N+](=O)[O-])N1C(=O)OCc1ccccc1` [Example IV, (3S)-4-N-(Benzyloxycarbonyl)-6-chloro-3-methyl-8-nitro-3,4-dihydroquinoxalin-2(1H)-one] registered a melting point of 85 °C. The same compound came in with an MIC in data set [2] above 0.8 µg/mL. For `C[C@H]1C(=O)Nc2c(N)cc(Cl)cc2N1C(=O)OCc1ccccc1` [Example V, (3S)-8-Amino-4-N-(benzyloxycarbonyl)-6-chloro-3-methyl-3,4-dihydroquinoxalin-2(1H)-one], the melting point fell in the range of 152 to 154 °C. Besides, in data set [1], the half-inhibitory concentration (IC50) is 21.7 µM. With `C[C@H]1C(=O)Nc2ccc(Cl)cc2N1C(=O)Oc1ccc(F)cc1` [Example X, (3S)-6-Chloro-4-N-(4-fluorophenoxycarbonyl)-3-methyl-3,4-dihydroquinoxalin-2(1H)-one], the melting point was 168 to 170 °C. The compound further displayed an MIC in data set [2] of 0.8 µg/mL (≈ 2.39 µM).

Consider `C[C@H]1C(=O)Nc2ccc(Cl)cc2N1C(=O)Oc1ccc(Cl)cc1` [Example XI, (3S)-6-Chloro-4-N-(4-chlorophenoxycarbonyl)-3-methyl-3,4-dihydroquinoxalin-2(1H)-one], for which the melting point lay within 185 to 188 °C. Take `C[C@H]1C(=O)Nc2ccc(Cl)cc2N1C(=O)OCCBr` [Example XII, (3S)-4-N-(2-Bromoethyloxycarbonyl)-6-chloro-3-methyl-3,4-dihydroquinoxalin-2(1H)-one]: the melting point lay within 133 to 136 °C. Moreover, in data set [2], the MIC was below 0.8 µg/mL.

For the compound `C=C(C)OC(=O)N1c2cc(Cl)ccc2NC(=O)[C@@H]1C` [Example XIII, (3S)-6-Chloro-N-(isopropenyloxycarbonyl)-3-methyl-3,4-dihydroquinoxalin-2(1H)-one], in data set [1], the “Reverse Transcriptase Assay IC50” value was found to be 0.04 µg/mL. Further, the “T-cell culture assay MIC” value in data set [2] was below 0.16 µg/mL. Turning to `CC(C)=CCN1CC(=O)Nc2ccc(Cl)cc21` [Example XV, 6-Chloro-4-N-(3-methyl-2-buten-1-yl)-3,4-dihydro-quinoxalin-2(1H)-one], the melting point was 150 to 151 °C. Still for that read-out and setting: the value for `C=CC(C)(C)C1C(=O)Nc2ccc(Cl)cc2N1CC=C(C)C` (stereo not drawn) [Example XVI, 6-Chloro-4-N-(3-methyl-2-buten-1-yl)-3-(1,1-dimethyl-2-propen-1-yl)-3,4-dihydroquinoxalin-2(1H)-one] was 110 to 112 °C; that for `COc1cc2c(cc1OC)NC(C)C(=O)N2` (stereo not drawn) [Example XVII, 6,7-Dimethoxy-3-methyl-3,4-dihydroquinoxalin-2(1H)-one] was 151 °C. In the case of `CC(C)=CCN1CC(=O)Nc2cc(S(=O)(=O)Oc3ccccc3)ccc21` [Example XXX, 4-(3-Methyl-2-buten-1-yl)-7-phenoxysulfonyl-3,4-dihydroquinoxalin-2(1H)-one], the melting point worked out at 132 °C. On the same count and under the same terms, the value for `C[C@H]1C(=O)Nc2ccc(Cl)cc2N1C(=O)Cl` [Example XXXV, (3S)-6-Chloro-4-N-chlorocarbonyl-3-methyl-3,4-dihydroquinoxalin-2(1H)-one] was 142 to 144 °C. Consider `COc1ccc(OC(=O)N2c3cc(Cl)ccc3NC(=O)[C@@H]2C)cc1` [IX, (3S)-6-Chloro-4-N-(4-methoxyphenoxycarbonyl)-3-methyl-3,4-dihydroquinoxalin-2(1H)-one], for which the melting point was in the range of 187 to 190 °C.

Consider `CC(C)=CCN1c2cc(Cl)ccc2NC(=O)[C@@H]1C` [VI-A, (3S)-6-Chloro-3-methyl-4-N-(3-methyl-2-buten-1-yl)-3,4-dihydroquinoxalin-2(1H)-one], for which the melting point is 117 to 118 °C. Moreover, the IC50 in data set [1] is 0.302 µM. The same compound registered an MIC in data set [2] of 0.16 µg/mL (≈ 0.604 µM). `C=C(C)OC(=O)N1c2ccc(C)cc2NC(=O)C1(C)C` [VIII, 4-N-(Isopropenyloxycarbonyl)-3,3,7-trimethyl-3,4-di-hydroquinoxalin-2(1H)-one] came in with a melting point of 185 °C. Same read-out and setting: the figure for `CC1(C)Nc2ccc(Cl)cc2N(C2CC2)C1=O` [XIX, 7-Chloro-1-N-(cyclopropyl)-3,3-dimethyl-3,4-dihydroquinoxalin-2(1H)-one] is 132 to 133 °C.

`O=C1CNc2ccc(S(=O)(=O)Oc3ccccc3)cc2N1` [XXIX, 7-Phenoxysulfonyl-3,4-dihydroquinoxalin-2(1H)-one]: the melting point was in the range of 253 to 254 °C.

For `O=C1Nc2cc(S(=O)(=O)Oc3ccccc3)ccc2N2C(=O)CCC12` (stereo not drawn) [XXVII, 7-Phenoxysulfonyl-3,3a-dihydropyrrolo[1,2-a]quinoxaline-1,4(2H,5H)-dione], the melting point is 140 °C (dec.). Still for that read-out and setting: the figure for `COCCOC(=O)N1c2cc(Cl)ccc2NC(=O)[C@@H]1C` [XXXVI, (3S)-6-Chloro-4-N-(2-methoxyethoxycarbonyl)-3-methyl-3,4-dihydroquinoxalin-2(1H)-one] is 93 to 94 °C.

What is called melting point is the temperature, or range, at which the solid turns liquid. The IC50 is the concentration that inhibits the measured activity by half.

The values above are taken from patent US6369057B1, “Quinoxalines, processes for their preparation and their use” (Aventis Pharma Deutschland GmbH, priority 1991, dated 2002).
